Reference: patent US20190255087A1, “ENCAPSULATION AND HIGH LOADING EFFICIENCY OF PHOSPHORYLATED DRUG AND IMAGING AGENTS IN NANOPARTICLES” (THE PENN STATE RESEARCH FOUNDATION, priority 2016, published 2019)
Where “and” joins values, the source holds several entries; their conditions need not be identical. Identical values can stand only once.

Columns and labels:
[1] = Encapsulated drug concentration and encapsulation efficiency (EE) in Cit-X-CPSNPs by LC-MS/MS; assay type: physicochemical; settings: for Drug concentration (M) / EE (mol %): citrate-functionalized CPSNPs, weighted mean ± 95% confidence interval, n = 4-6 replicates
Experimental: The encapsulation efficiencies (EE) in Table 1 was experimentally determined by LC-MS/MS for 5FU, 5FU:ATP, FUdR, FdUMP, Gem, and GemMP, as drawn in FIG. 2 1. The EE is defined by the following equation,
(§1) where mi was the total drug content in moles and mf was the moles encapsulated as assessed by LC-MS/MS. Particles were diluted in 10% methanol with 0.1% formic acid and 5-CU was spiked in as an internal standard. Chromatography was done on a 2.1 mm×10 cm HSS T3 or C18 CSH column (Waters) on a Waters I-class FTN chromatography system with the column temperature at 40° C. Mobile phase A was water with 5 mM ammonium acetate and B was methanol. The flow rate was 0.5 mL/min and the chromatography consisted of holding at 7.5% B for 1 min, increasing to 95% B over 0.5 min, holding at 95% B for 0.5 min before equilibration to starting conditions. Eluate was analyzed by an inline Waters TQ-S mass spectrometer. The capillary was set at 1.0 kV, source temperature at 150° C., desolvation temperature at 600° C., cone gas at 150 L/hr, and desolvation gas flow at 1200 L/hr. Multiple reaction monitoring (MRM) was used to detect 5-CU, FdUMP, Gem, and GemMP. The MRM transition used for 5-CU was 145 >42 with the collision energy set at 12. The MRM transition used for drug agents was 325 >195 with the collision energy set at 12. Drug concentrations were determined using TargetLynx version 4.1 (Waters) using an external calibration curve with 1/x weighting.
as §1, with “Particles” for “where mi was the total drug content in moles and mf was the moles encapsulated as assessed by LC-MS/MS. Particles”, “5-CU” for “5-CU, FdUMP, Gem,”, “FdUMP.” for “GemMP.”, “FdUMP” for “drug agents”, “FdUMP” for “Drug”

BxPC-3 = assay: Cell proliferation assay (alamarBlue); assay type: cell-based, human; settings: for Decrease of BxPC-3 proliferation: 200 μM free drug; for EC50 of free drug, BxPC-3: in words
Excerpt: (§2) CPSNPs in 70/30 ethanol/water suspensions were completely dried under pre-purified argon and reconstituted in sterile 1×PBS without calcium or magnesium.
(§3) BxPC-3 and Panc-1 were obtained from ATCC. RLT-PSC pancreatic stellate cells were a gift from Professor Ralf Jesenofsky, University of Heidelberg, and H6c7, immortalized human pancreatic ductal epithelial cells, were a gift of Dr. Ming-Sound Tsao, University of Toronto. H6c7 cells have a near normal genotype with wild type p53 and KRAS genes. Cells were cultured in the appropriate media as follows: Dulbecco's modified Eagle medium with 10% FBS for PANC-1 and RLT-PSC, RPMI 1640 with 10% FBS for BxPC-3, and complete keratinocyte basal medium (KBM), containing growth factors, hormones and bovine pituitary extract for H6c7 cells (Invitrogen).
(§4) PANC-1, BxPC-3, RLT-PSC and H6c7 cells were seeded into 96 well plates at 5,000 cells per well. At 24 hours post seeding, media only/no treatment (NT), vehicle (lx sterile PBS without calcium and magnesium), 5FU and FdUMP treatments were initiated and viable cells determinations were made at 24, 48 or 72 hr post-treatment using an alamarBlue® assay (Life Technologies). Data were normalized to vehicle treatments for all time points.
as §4, with “CPSNPs in 70/30 ethanol/water suspensions were completely dried under pre-purified argon and reconstituted in sterile 1×PBS without calcium or magnesium. PANC-1,” for “PANC-1,”, “(1×” for “(lx”
(§5) Results were expressed as means±standard error. Student t-tests were used to evaluate statistical significance with a p<0.05 considered to be significant. To calculate EC50±95% CI, nonlinear regression analysis was performed to generate the curve of best fit for the data according to a Sigmoidal regression using a 4-parameter logistic curve calibration [Y=Yo+(a/(1+((X/Xo)^b))] in SigmaPlot 12 (Systat, Inc.).

PANC-1 [2] = assay: Cell proliferation assay (alamarBlue); assay type: cell-based, human; settings: for EC50 of free drug, PANC-1: in words
Excerpt: as §2, §3, §4
as §4, with “CPSNPs in 70/30 ethanol/water suspensions were completely dried under pre-purified argon and reconstituted in sterile 1×PBS without calcium or magnesium. PANC-1,” for “PANC-1,”, “(1×” for “(lx”
as §5

[3] = in vivo; cited from earlier work
PANC-1 [4] = assay: Cell cycle analysis by propidium iodide flow cytometry; assay type: cell-based, human; settings: PANC-1, 72 hr, 250 μM
Experimental: (§6) For determination of nuclear DNA content, PANC-1 treatments included NT, vehicle (1× sterile calcium- and magnesium-free PBS), 250 μM free FdUMP, Ghost-CPSNPs, or 200 nM FdUMP-CPSNPs. After 72 hours of treatment, cells were fixed in 75% ethanol overnight. Immediately prior to analysis, cells were treated with 1 μg/mL of RNase A and stained with 50 μg/mL of propidium iodide, which is taken up by double-stranded DNA. DNA content was determined using a FACSCalibur flow cytometer (BD Biosciences), and data were analyzed with Cellquest (Verity Software).
as §6, with “FdUMP, ghost-CPSNPs,” for “FdUMP, Ghost-CPSNPs,”, “50 µg/mL” for “50 μg/mL”

[5] = molecular target: T1, thymidylate synthase (TS) (Homo sapiens, UniProt P04818); assay: Thymidylate synthase immunoblotting, PANC-1 cells; assay type: cell-based; parameters: endogenous in cells; host or cells: PANC-1 (ATCC); settings: 250 μM free FdUMP
T1 sequence (P04818 2-313 limits assumed): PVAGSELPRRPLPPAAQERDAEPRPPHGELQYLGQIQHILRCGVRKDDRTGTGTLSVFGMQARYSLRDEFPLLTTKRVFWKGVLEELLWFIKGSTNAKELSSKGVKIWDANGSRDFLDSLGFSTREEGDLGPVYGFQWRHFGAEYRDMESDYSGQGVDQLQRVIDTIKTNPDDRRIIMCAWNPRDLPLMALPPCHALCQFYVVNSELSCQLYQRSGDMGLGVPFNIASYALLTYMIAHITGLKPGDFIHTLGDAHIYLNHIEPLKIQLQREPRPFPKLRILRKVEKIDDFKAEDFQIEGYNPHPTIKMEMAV
Experimental: Thus in the presence of folate, TS dimers and FdUMP create an irreversibly inactivated enzyme:drug complex.^59 Experimentally, the inhibition of TS activity by FdUMP can be detected by the presence of this stable ternary complex.
PANC-1 cells were incubated for 24 hours in the following treatment groups: NT, vehicle, 250 μM free FdUMP, 200 nM FdUMP-CPSNPs, and Ghost-CPSNPs in PBS. Lysates were collected by aspirating the media, washing with 1×PBS, and adding RIPA buffer containing Complete Mini protease cocktail (Roche). Lysates were spun to remove debris and the supernatants frozen at −80° C. Protein concentration was determined by micro BCA protein assay (Thermo Scientific) and 20 μg of protein separated by gel electrophoresis. After transfer to HyBond ECL and blocking for 1 hr in 5% BSA, blots were probed overnight with anti-TS antibody (1:1000, D5B3, #9045 Cell Signaling). Blots were washed, probed with anti-rabbit-HRP secondary antibody for 1 hour and developed with Pierce Pico (Thermo Scientific). Quantitation of scanned blots was done using Image J software.
PANC-1 cells were incubated for 24 hours in the following treatment groups: NT, vehicle, 250 μM free FdUMP, 200 nM FdUMP-CPSNPs, and ghost-CPSNPs in PBS. […] Lysates were spun to remove debris and the supernatants frozen at −80° C. […] Quantitation of scanned blots was done using Image J software.

[6] = molecular target: T1, thymidylate synthase (TS); assay: Thymidylate synthase immunoblotting, BxPC-3 cells; assay type: cell-based; parameters: PANC-1 cells were incubated for 24 hours in the following treatment groups; endogenous in cells; settings: 250 μM free FdUMP

Molecule | Drug concentration (M) [1] | EE (mol %) [1] | EC50 of free drug, BxPC-3 (BxPC-3) | EC50 of free drug, PANC-1 (PANC-1 [2]) | EE, range over replicated formulations ([1]; Cit-X-CPSNPs) | Decrease of BxPC-3 proliferation (BxPC-3) | Fraction of 5FU catabolized to 5-fluorodihydrouracil by DPD [3] | Fraction of 5FU pro-drug activated to FdUMP [3] | Encapsulated drug concentration, range over replicated formulations ([1]; Cit-X-CPSNPs) [µM] | Reduction of PANC-1 proliferation (PANC-1 [2]; 200 μM free drug) | % Cells in G2/M (PANC-1 [4]) [%] | % Cells in G1/G0 (PANC-1 [4]; listed as free FdUMP) | % Cells in S (PANC-1 [4]; listed as free FdUMP) | TS in inactive ternary complex (inhibition), PANC-1 [5] [%] | TS in inactive ternary complex (inhibition), BxPC-3 [6] [%]
O=c1[nH]cc(F)c(=O)[nH]1 [Formulation 5FU, 5-fluorouracil] | 4.1 (±1.8)×10^−7 M | 0.11 (±0.04) mol % | low uM | low uM | – | equally effective | more than 80% | less than 20% | – | – | – | – | – | – | –
O=c1[nH]c(=O)n([C@H]2C[C@H](O)[C@@H](COP(=O)(O)O)O2)cc1F [FdUMP, 5-fluoro-2′-deoxyuridine 5′-monophosphate] | 3.0 (±1.4)×10^−4 M | 41 (±16) mol % | low uM | low uM | 7-97 mol % | equally effective | – | – | 60 to 830 | twice as effective as free 5FU | 23.5 ± 6.3 | 20% and 20.3 ± 3.0% | 56% and 56.3 ± 10.3% | 80 | 90
O=c1[nH]c(=O)n([C@H]2C[C@H](O)[C@@H](CO)O2)cc1F [FUdR, 5-fluoro-2′-deoxyuridine] | 2.8 (±1.2)×10^−8 M | < 0.01 mol % | – | – | < 0.01 mol % | – | – | – | – | – | – | – | – | – | –

Further lines, with some results ahead:

Drug concentration (M) [1] | EE (mol %) [1] | EC50 of free drug, BxPC-3 (BxPC-3) | EC50 of free drug, PANC-1 (PANC-1 [2]) | EE, range over replicated formulations ([1]; Cit-X-CPSNPs) | Molecule | Decrease of BxPC-3 proliferation (BxPC-3) | Fraction of 5FU catabolized to 5-fluorodihydrouracil by DPD [3] | Fraction of 5FU pro-drug activated to FdUMP [3] | Encapsulated drug concentration, range over replicated formulations ([1]; Cit-X-CPSNPs) [µM] | Reduction of PANC-1 proliferation (PANC-1 [2]; 200 μM free drug) | % Cells in G2/M (PANC-1 [4]) [%] | % Cells in G1/G0 (PANC-1 [4]; listed as free FdUMP) | % Cells in S (PANC-1 [4]; listed as free FdUMP) | TS in inactive ternary complex (inhibition), PANC-1 [5] [%] | TS in inactive ternary complex (inhibition), BxPC-3 [6] [%]
2.3 (±0.4)×10^−5 M | 22 (±6) mol % | nM range | nM range | 15-30 mol % | gemcitabine monophosphate [GemMP] | – | – | – | – | – | – | – | – | – | –
1.9 (±0.6)×10^−9 M | < 0.01 mol % | – | – | – | Nc1ccn([C@@H]2O[C@H](CO)[C@@H](O)C2(F)F)c(=O)n1 [Gem, 2′,2′-difluorodeoxycytidine] | – | – | – | – | – | – | – | – | – | –
